Molecules are shown by their SMILES. “Also recorded” adds a separate entry of the source.

The nature of data set [1]: Water solubility observed during formulation for the PK study. The class given is physicochemical. Conditions: compared with LY2334737.
A short description of data set [2]: Mice PK study: plasma active metabolite Gemcitabine after dosing of prodrug. The class given is in vivo, male CD1 mouse. Conditions: single dose 10, 150, 300 mg/kg. The protocol: The pharmacokinetics of compounds were evaluated in male CD1 mouse via Intravenous and Oral Administration. The iv dose was administered as a slow bolus in the Jugular vein, and oral doses were administered by gavage. The formulation is 2.5% DMSO, 10% EtOH, 20% Cremphor EL, 67.5% D5W. The PK time point 5 min, 15, 30 min, 1, 2, 4, 6, 8 hours post dose. Approximately 0.03 mL blood will be collected at each time point. Keep blood at room temperature and collect plasma within 15 min by centrifugation at 4000 g for 5 minutes in a 4° C. centrifuge. Plasma samples will be stored in polypropylene tubes. The plasma samples will be stored in a freezer at −75±15° C. prior to analysis. Concentrations of compounds and the active metaboliste Gemcitabine in the plasma samples will be analyzed using a LC-MS/MS method. WinNonlin (Phoenix, version 6.1) or other similar software will be used for pharmacokinetic calculations. The following pharmacokinetic parameters will be calculated, whenever possible from the plasma concentration versus time data: IV administration: C0, CL, Vd, T1/2, AUCinf, AUClast, MRT, Number of Points for Regression; PO administration: Cmax, Tmax, T1/2, AUCinf, AUClast, F %, Number of Points for Regression. The pharmacokinetic data will be described using descriptive statistics such as mean, standard deviation. […]

Data set [3] deals with ovarian cancer A2780 xenograft model. The experiment in a line: In vivo xenograft study, ovarian cancer A2780 model. Also noted: species or system mice. The conditions noted are these: for Tumor volume: A2780 xenograft. The source says:
Compound of Example 2 was selected for in vivo studies in the ovarian cancer A2780 xenograft model. Typically, athymic nude mice (CD-1 nu/nu) or SCID mice are obtained at age 6-8 weeks from vendors and acclimated for a minimum 7-day period. The cancer cells are then implanted into the nude mice. Depending on the specific tumor type, tumors are typically detectable about two weeks following implantation. When tumor sizes reach ˜100-200 mm^3, the animals with appreciable tumor size and shape are randomly assigned into groups of 8 mice each, including one vehicle control group and treatment groups. Dosing varies depending on the purpose and length of each study, which typically proceeds for about 3-4 weeks. Tumor sizes and body weight are typically measured three times per week. In addition to the determination of tumor size changes, the last tumor measurement is used to generate the tumor size change ratio (T/C value), a standard metric developed by the National Cancer Institute for xenograft tumor evaluation. In most cases, % T/C values are calculated using the following formula: % T/C=100×ΔT/ΔC if ΔT>0. When tumor regression occurred (ΔT<0), however, the following formula is used: % T/T0=100×ΔT/T0. Values of <42% are considered significant.
Ovarian Cancer is the 5th most common cancer in women: ˜ 22,280 new cases and 14,240 death in 2016 in US. In China, Ovarian Cancer has more than 100,000 new cases each year. Gemcitabine (intravenous dosing) is the 2nd line SOC of Ovarian Cancer.

The conditions of data set [4]: mice, single oral (gavage) dose of 167, 333, or 500 mg/kg; cited from earlier work.
For data set [5] the following is noted: LY2334737 QD, Japanese patients, 2013; cited from earlier work.

For the compound `CCCC(CCC)C(=O)Nc1ccn([C@@H]2O[C@H](COC(=O)C(C)C)[C@@H](OC(=O)[C@@H](N)C(C)C)C2(F)F)c(=O)n1` [Example 2, (2R,3R,5R)-4,4-difluoro-2-[[(2-methylpropanoyl)oxy]methyl]-5-[2-oxo-4-(2-propylpentanamido)-1,2-dihydropyrimidin-1-yl]oxolan-3-yl (2S)-2-amino-3-methylbutanoate], in data set [1], the water solubility entry was “significant higher water solubility than LY2334737; also recorded: excellent water solubility”. Moreover, the “PK linearity of active metabolite Gemcitabine” value in data set [2] was “good PK linearity”. In data set [3] (A2780 model, Example 2 oral dosing), the “efficacy compared with Gemcitabine (IV dosing)” value was “better efficacy than Gemcitabine (IV dosing)”. The same compound yielded a Tumor volume in data set [3] (75 mg/kg po q4d × 7) of 65 mm^3.

Turning to `Nc1ccn([C@@H]2O[C@H](CO)[C@@H](O)C2(F)F)c(=O)n1` [Gemcitabine], the Tumor volume in data set [3] (120 mg/kg IV qw × 4) is 442 mm^3. For the same compound, the “adverse dose-limiting intestinal lesions” value in data set [4] is recorded as “moderate-to-marked loss of mucosal epithelium (atrophic enteropathy)”.

Take `CCCC(CCC)C(=O)Nc1ccn([C@@H]2O[C@H](CO)[C@@H](O)C2(F)F)c(=O)n1` [LY2334737]: in data set [5], the hepatic toxicity result is on record as “unexpected hepatic toxicities were observed”.

The values above are taken from patent US20220033430A1, “ORALLY ACTIVE PRODRUG OF GEMCITABINE” (TNT Medical Corporation, priority 2018, published 2022).
